Experimental data taken from ChEMBL document CHEMBL2331477, “Effect of helical conformation and side chain structure on γ-secretase inhibition by β-peptide foldamers: insight into substrate recognition” (J Med Chem, 2013).
Calls of active or inactive are those of the source. No cut-off for these calls is given here.

How the values were obtained:
Gamma-secretase [1] = experiment: Inhibition of gamma-secretase (unknown origin) expressed in N2a NL/N cells coexpressing betaAPPNL and NotchdeltaE assessed as Abeta42 secretion by ELISA; type: cell-based, Homo sapiens
Gamma-secretase [2] = experiment: Inhibition of gamma-secretase (unknown origin) expressed in N2a NL/N cells coexpressing betaAPPNL and NotchdeltaE assessed as Abeta40 secretion by ELISA; type: cell-based, Homo sapiens
[3] = molecular target: T1, Gamma-secretase (Homo sapiens) (UniProt Q96BI3+Q9NZ42+Q8WW43+P49768+Q92542+P49810); experiment: Inhibition of gamma-secretase (unknown origin) expressed in N2a NL/N cells coexpressing betaAPPNL and NotchdeltaE assessed as Abeta40 secretion at 100 nM by ELISA; type: cell-based
[4] = molecular target: T1, Gamma-secretase (Homo sapiens); experiment: Inhibition of gamma-secretase (unknown origin) expressed in N2a NL/N cells coexpressing betaAPPNL and NotchdeltaE assessed as Abeta42 secretion at 100 nM by ELISA; type: cell-based

Compound | IC50 (Gamma-secretase [1]) [µM] | IC50 (Gamma-secretase [2]) [µM] | inhibition [3] | inhibition [4]
CC(=O)N1CCC[C@@H]1C(=O)N1CCC[C@@H]1C(=O)N1CCC[C@@H]1C(=O)N1CCC[C@@H]1C(=O)N1CCC[C@@H]1C(=O)N1CCC[C@@H]1C(=O)N1CCC[C@@H]1C(=O)N1CCC[C@@H]1C(=O)N1CCC[C@@H]1C(=O)N1CCC[C@@H]1C(=O)N1CCC[C@@H]1C(N)=O | > 30 | > 30 |  | 
CC(=O)N[C@H]1CCC[C@@H]1C(=O)N[C@H]1CCC[C@@H]1C(=O)N[C@H]1CCC[C@@H]1C(=O)N[C@H]1CCC[C@@H]1C(=O)N[C@H]1CCC[C@@H]1C(=O)N[C@H]1CCC[C@@H]1C(=O)N[C@H]1CCC[C@@H]1C(=O)N[C@H]1CCC[C@@H]1C(=O)N[C@H]1CCC[C@@H]1C(=O)N[C@H]1CCC[C@@H]1C(=O)N[C@H]1CCC[C@@H]1C(N)=O | 0.225 | 0.244 |  | 
CC(=O)N1CCC[C@@H]1C(=O)N1CCC[C@@H]1C(=O)N1CCC[C@@H]1C(=O)N1CCC[C@@H]1C(=O)N1CCC[C@@H]1C(=O)N1CCC[C@@H]1C(=O)N1CCC[C@@H]1C(=O)N1CCC[C@@H]1C(=O)N1CCC[C@@H]1C(N)=O | > 30 | > 30 |  | 
CC(=O)N1CCC[C@H]1C(=O)N1CCC[C@H]1C(=O)N1CCC[C@H]1C(=O)N1CCC[C@H]1C(=O)N1CCC[C@H]1C(=O)N1CCC[C@H]1C(=O)N1CCC[C@H]1C(=O)N1CCC[C@H]1C(=O)N1CCC[C@H]1C(=O)N1CCC[C@H]1C(=O)N1CCC[C@H]1C(N)=O | > 30 | > 30 |  | 
CC(=O)N[C@H]1CCC[C@@H]1C(=O)N[C@H]1CCC[C@@H]1C(=O)N[C@H]1COC[C@@H]1C(=O)N[C@H]1CCC[C@@H]1C(=O)N[C@H]1CCC[C@@H]1C(=O)N[C@H]1CCC[C@@H]1C(=O)N[C@H]1CCC[C@@H]1C(=O)N[C@H]1CCC[C@@H]1C(=O)N[C@H]1CCC[C@@H]1C(=O)N[C@H]1CCC[C@@H]1C(=O)N[C@H]1CCC[C@@H]1C(=O)N[C@H]1CCC[C@@H]1C(N)=O |  |  | Active | Active
CC(=O)N[C@H]1CCC[C@@H]1C(=O)N[C@H]1CCC[C@@H]1C(=O)N[C@H]1CCC[C@@H]1C(=O)N[C@H]1CCC[C@@H]1C(=O)N[C@H]1CCC[C@@H]1C(=O)N[C@H]1CCC[C@@H]1C(=O)N[C@H]1CCC[C@@H]1C(=O)N[C@H]1CCC[C@@H]1C(=O)N[C@@H](CCC(N)=O)CC(=O)N[C@H]1CCC[C@@H]1C(=O)N[C@H]1CCC[C@@H]1C(=O)N[C@H]1CCC[C@@H]1C(N)=O |  |  | inactive | inactive
CC(=O)N[C@H]1CCC[C@@H]1C(=O)N[C@H]1CCC[C@@H]1C(=O)N[C@H](CC(=O)N[C@H]1CCC[C@@H]1C(=O)N[C@H]1CCC[C@@H]1C(=O)N[C@H]1CCC[C@@H]1C(=O)N[C@H]1CCC[C@@H]1C(=O)N[C@H]1CCC[C@@H]1C(=O)N[C@H]1CCC[C@@H]1C(=O)N[C@H]1CCC[C@@H]1C(=O)N[C@H]1CCC[C@@H]1C(=O)N[C@H]1CCC[C@@H]1C(N)=O)CC(C)C |  |  | Active | Active
CC(=O)N[C@H]1CCC[C@@H]1C(=O)N[C@H]1CCC[C@@H]1C(=O)N[C@@H](CCC(=O)O)CC(=O)N[C@H]1CCC[C@@H]1C(=O)N[C@H]1CCC[C@@H]1C(=O)N[C@H]1CCC[C@@H]1C(=O)N[C@H]1CCC[C@@H]1C(=O)N[C@H]1CCC[C@@H]1C(=O)N[C@H]1CCC[C@@H]1C(=O)N[C@H]1CCC[C@@H]1C(=O)N[C@H]1CCC[C@@H]1C(=O)N[C@H]1CCC[C@@H]1C(N)=O |  |  | Active | Active
CC(=O)N1CCC[C@H]1C(=O)N1CCC[C@H]1C(=O)N1CCC[C@H]1C(=O)N1CCC[C@H]1C(=O)N1CCC[C@H]1C(=O)N1CCC[C@H]1C(=O)N1CCC[C@H]1C(=O)N1CCC[C@H]1C(=O)N1CCC[C@H]1C(N)=O | > 30 | > 30 |  | 
CC(=O)N[C@H]1CCC[C@@H]1C(=O)N[C@H]1CCC[C@@H]1C(=O)N[C@H]1CCC[C@@H]1C(=O)N[C@H]1CCC[C@@H]1C(=O)N[C@H]1CCC[C@@H]1C(=O)N[C@H]1CCC[C@@H]1C(=O)N[C@H]1CCC[C@@H]1C(=O)N[C@H]1CCC[C@@H]1C(=O)N[C@H](CC(=O)N[C@H]1CCC[C@@H]1C(=O)N[C@H]1CCC[C@@H]1C(=O)N[C@H]1CCC[C@@H]1C(N)=O)CC(C)C |  |  | inactive | inactive
O=S(=O)(N[C@H](CO)C(C(F)(F)F)C(F)(F)F)c1ccc(Cl)s1 [BEGACESTAT] | 0.414 | 0.203 |  | 
CC(=O)N[C@H]1CCC[C@@H]1C(=O)N[C@H]1CCC[C@@H]1C(=O)N[C@@H](CS)CC(=O)N[C@H]1CCC[C@@H]1C(=O)N[C@H]1CCC[C@@H]1C(=O)N[C@H]1CCC[C@@H]1C(=O)N[C@H]1CCC[C@@H]1C(=O)N[C@H]1CCC[C@@H]1C(=O)N[C@H]1CCC[C@@H]1C(=O)N[C@H]1CCC[C@@H]1C(=O)N[C@H]1CCC[C@@H]1C(=O)N[C@H]1CCC[C@@H]1C(N)=O |  |  | Active | Active
CC(=O)N[C@H]1CCC[C@@H]1C(=O)N[C@H]1CCC[C@@H]1C(=O)N[C@H]1CCC[C@@H]1C(=O)N[C@H]1CCC[C@@H]1C(=O)N[C@H]1CCC[C@@H]1C(=O)N[C@H](CC(=O)N[C@H]1CCC[C@@H]1C(=O)N[C@H]1CCC[C@@H]1C(=O)N[C@H]1CCC[C@@H]1C(=O)N[C@H]1CCC[C@@H]1C(=O)N[C@H]1CCC[C@@H]1C(=O)N[C@H]1CCC[C@@H]1C(N)=O)Cc1ccc(O)cc1 |  |  | inactive | inactive
CC(=O)N[C@H]1CCC[C@@H]1C(=O)N[C@H]1CCC[C@@H]1C(=O)N[C@H]1CCC[C@@H]1C(=O)N[C@H]1CCC[C@@H]1C(=O)N[C@H]1CCC[C@@H]1C(=O)N[C@H](CO)CC(=O)N[C@H]1CCC[C@@H]1C(=O)N[C@H]1CCC[C@@H]1C(=O)N[C@H]1CCC[C@@H]1C(=O)N[C@H]1CCC[C@@H]1C(=O)N[C@H]1CCC[C@@H]1C(=O)N[C@H]1CCC[C@@H]1C(N)=O |  |  | inactive | inactive
CC(=O)N[C@H]1CCC[C@@H]1C(=O)N[C@H]1CCC[C@@H]1C(=O)N[C@H]1CCC[C@@H]1C(=O)N[C@H]1CCC[C@@H]1C(=O)N[C@H]1CCC[C@@H]1C(=O)N[C@H]1CCC[C@@H]1C(=O)N[C@H]1CCC[C@@H]1C(=O)N[C@H]1CCC[C@@H]1C(=O)N[C@@H](CCC(=O)O)CC(=O)N[C@H]1CCC[C@@H]1C(=O)N[C@H]1CCC[C@@H]1C(=O)N[C@H]1CCC[C@@H]1C(N)=O |  |  | inactive | inactive
CC(=O)N[C@H]1CCC[C@@H]1C(=O)N[C@H]1CCC[C@@H]1C(=O)N[C@H]1CCC[C@@H]1C(=O)N[C@H]1CCC[C@@H]1C(=O)N[C@H]1CCC[C@@H]1C(=O)N[C@H]1CCC[C@@H]1C(=O)N[C@H]1CCC[C@@H]1C(=O)N[C@H]1CCC[C@@H]1C(=O)N[C@H](CC(=O)N[C@H]1CCC[C@@H]1C(=O)N[C@H]1CCC[C@@H]1C(=O)N[C@H]1CCC[C@@H]1C(N)=O)Cc1ccc(O)cc1 |  |  | inactive | inactive
CC(=O)N[C@H]1CCC[C@@H]1C(=O)N[C@H]1CCC[C@@H]1C(=O)N[C@@H](CCC(N)=O)CC(=O)N[C@H]1CCC[C@@H]1C(=O)N[C@H]1CCC[C@@H]1C(=O)N[C@H]1CCC[C@@H]1C(=O)N[C@H]1CCC[C@@H]1C(=O)N[C@H]1CCC[C@@H]1C(=O)N[C@H]1CCC[C@@H]1C(=O)N[C@H]1CCC[C@@H]1C(=O)N[C@H]1CCC[C@@H]1C(=O)N[C@H]1CCC[C@@H]1C(N)=O |  |  | Active | Active
CC(=O)N[C@H]1CCC[C@@H]1C(=O)N[C@H]1CCC[C@@H]1C(=O)N[C@@H](CCCCN)CC(=O)N[C@H]1CCC[C@@H]1C(=O)N[C@H]1CCC[C@@H]1C(=O)N[C@H]1CCC[C@@H]1C(=O)N[C@H]1CCC[C@@H]1C(=O)N[C@H]1CCC[C@@H]1C(=O)N[C@H]1CCC[C@@H]1C(=O)N[C@H]1CCC[C@@H]1C(=O)N[C@H]1CCC[C@@H]1C(=O)N[C@H]1CCC[C@@H]1C(N)=O |  |  | Active | Active
CC(=O)N[C@H]1CCC[C@@H]1C(=O)N[C@H]1CCC[C@@H]1C(=O)N[C@H]1CCC[C@@H]1C(=O)N[C@H]1CCC[C@@H]1C(=O)N[C@H]1CCC[C@@H]1C(=O)N[C@@H](CCCCN)CC(=O)N[C@H]1CCC[C@@H]1C(=O)N[C@H]1CCC[C@@H]1C(=O)N[C@H]1CCC[C@@H]1C(=O)N[C@H]1CCC[C@@H]1C(=O)N[C@H]1CCC[C@@H]1C(=O)N[C@H]1CCC[C@@H]1C(N)=O |  |  | inactive | inactive
CC(=O)N[C@H]1CCC[C@@H]1C(=O)N[C@H]1CCC[C@@H]1C(=O)N[C@H]1CCC[C@@H]1C(=O)N[C@H]1CCC[C@@H]1C(=O)N[C@H]1CCC[C@@H]1C(=O)N[C@@H](CC(=O)N[C@H]1CCC[C@@H]1C(=O)N[C@H]1CCC[C@@H]1C(=O)N[C@H]1CCC[C@@H]1C(=O)N[C@H]1CCC[C@@H]1C(=O)N[C@H]1CCC[C@@H]1C(=O)N[C@H]1CCC[C@@H]1C(N)=O)[C@@H](C)O |  |  | inactive | inactive
CC(=O)N[C@H]1CCC[C@@H]1C(=O)N[C@H]1CCC[C@@H]1C(=O)N[C@H]1CCC[C@@H]1C(=O)N[C@H]1CCC[C@@H]1C(=O)N[C@H]1CCC[C@@H]1C(=O)N[C@H](CC(=O)N[C@H]1CCC[C@@H]1C(=O)N[C@H]1CCC[C@@H]1C(=O)N[C@H]1CCC[C@@H]1C(=O)N[C@H]1CCC[C@@H]1C(=O)N[C@H]1CCC[C@@H]1C(=O)N[C@H]1CCC[C@@H]1C(N)=O)CC(C)C |  |  | inactive | inactive
CC(=O)N[C@H]1CCC[C@@H]1C(=O)N[C@H]1CCC[C@@H]1C(=O)N[C@H](CC(=O)N[C@H]1CCC[C@@H]1C(=O)N[C@H]1CCC[C@@H]1C(=O)N[C@H]1CCC[C@@H]1C(=O)N[C@H]1CCC[C@@H]1C(=O)N[C@H]1CCC[C@@H]1C(=O)N[C@H]1CCC[C@@H]1C(=O)N[C@H]1CCC[C@@H]1C(=O)N[C@H]1CCC[C@@H]1C(=O)N[C@H]1CCC[C@@H]1C(N)=O)Cc1ccc(O)cc1 |  |  | inactive | inactive
CC(=O)N[C@H]1CCC[C@@H]1C(=O)N[C@H]1CCC[C@@H]1C(=O)N[C@@H](CC(=O)N[C@H]1CCC[C@@H]1C(=O)N[C@H]1CCC[C@@H]1C(=O)N[C@H]1CCC[C@@H]1C(=O)N[C@H]1CCC[C@@H]1C(=O)N[C@H]1CCC[C@@H]1C(=O)N[C@H]1CCC[C@@H]1C(=O)N[C@H]1CCC[C@@H]1C(=O)N[C@H]1CCC[C@@H]1C(=O)N[C@H]1CCC[C@@H]1C(N)=O)[C@@H](C)O |  |  | inactive | inactive
